Measurements reported in PubChem BioAssay AID1259411 (Chemical Carcinogenesis Research Information System (CCRIS), 2018).
Calls of active or inactive are those of the source. No rule for the calls is given here.

Tested on: rodent carcinogenicity bioassays, tumor incidence
Experiment: CCRIS carcinogenicity studies
In short: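 NCI-built, expert-reviewed records of carcinogenicity and related test outcomes (mutagenicity, tumor promotion/inhibition) compiled from published and report sources, historical span 1985-2011, not updated.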

CCCCCCCCCCCCc1ccccc1
carcinogen call (Species: MOUSE, Strain/Sex: HR/HR OSLO/MALE, FEMALE, Route: DERMAL, Dose: 0, 16, 80% IN ACETONE 2/WK FOR 78 WK (STUDY DURATION: 80 WK), Dose: 0, 16, 80% IN ACETONE 2/WK FOR 78 WK (STUDY DURATION: 80 WK), Tumor Site: Type of Lesion: SKIN: TUMOR): active; positive

O=C(Cn1ccnc1[N+](=O)[O-])NCc1ccccc1
carcinogen call (Species: MOUSE, Strain/Sex: SWISS/FEMALE, Route: INTRAPERITONEAL, Dose: 0, 8 UG/G BW 1/D FOR 30 DAYS (STUDY DURATION: LIFETIME), Tumor Site: Type of Lesion: LYMPHATIC SYSTEM: LYMPHOMA): active; positive
carcinogen call (Species: MOUSE, Strain/Sex: SWISS/FEMALE, Route: INTRAPERITONEAL, Dose: 0, 8 UG/G BW 1/D FOR 60 DAYS (STUDY DURATION: LIFETIME), Tumor Site: Type of Lesion: LYMPHATIC SYSTEM: LYMPHOMA): active; positive

Nc1ccccc1C(=O)OC/C=C/c1ccccc1
carcinogen call (Species: MOUSE, Strain/Sex: B6C3F1/FEMALE, Route: ORAL, Dose: 0, 15000, 30000 PPM IN DIET FOR 103 WK (STUDY DURATION: 105-107 WK), Dose: 0, 15000, 30000 PPM IN DIET FOR 103 WK (STUDY DURATION: 105-107 WK), Tumor Site: Type of Lesion: LIVER: HEPATOCELLULAR ADENOMA OR CARCINOMA): active; positive
carcinogen call (Species: MOUSE, Strain/Sex: B6C3F1/MALE, Route: ORAL, Dose: 0, 15000, 30000 PPM IN DIET FOR 103 WK (STUDY DURATION: 105-107), Dose: 0, 15000, 30000 PPM IN DIET FOR 103 WK (STUDY DURATION: 105-107), Tumor Site: Type of Lesion: LIVER: HEPATOCELLULAR ADENOMA OR CARCINOMA): active; positive
carcinogen call (Species: RAT, Strain/Sex: F344/FEMALE, Route: ORAL, Dose: 0, 15000, 30000 PPM IN DIET FOR 103 WK (STUDY DURATION: 105-107 WK), Dose: 0, 15000, 30000 PPM IN DIET FOR 103 WK (STUDY DURATION: 105-107 WK)): inactive; negative
carcinogen call (Species: RAT, Strain/Sex: F344/MALE, Route: ORAL, Dose: 0, 15000, 30000 PPM IN DIET FOR 103 WK (STUDY DURATION: 105-107), Dose: 0, 15000, 30000 PPM IN DIET FOR 103 WK (STUDY DURATION: 105-107), Tumor Site: Type of Lesion: PANCREAS: ACINAR CELL ADENOMA OR CARCINOMA, KIDNEY (CORTEX): ADENOMA OR ADENOCARCINOMA (NOS)): active; positive

CCC(Br)(CC)C(=O)NC(N)=O
carcinogen call (Species: MOUSE, Strain/Sex: B6C3F1/FEMALE, Route: ORAL, Dose: 0, 1250, 2500 PPM IN DIET, Dose: 0, 1250, 2500 PPM IN DIET): inactive; negative
carcinogen call (Species: MOUSE, Strain/Sex: B6C3F1/MALE, Route: ORAL, Dose: 0, 1250, 2500 PPM IN DIET, Dose: 0, 1250, 2500 PPM IN DIET): inactive; negative
carcinogen call (Species: RAT, Strain/Sex: F344/FEMALE, Route: ORAL, Dose: 0, 1250, 2500 PPM IN DIET, Dose: 0, 1250, 2500 PPM IN DIET): inactive; negative
carcinogen call (Species: RAT, Strain/Sex: F344/MALE, Route: ORAL, Dose: 0, 1250, 2500 PPM IN DIET, Dose: 0, 1250, 2500 PPM IN DIET): inactive; negative

CC(C)(Oc1ccc(C2CC2(Cl)Cl)cc1)C(=O)O (configuration not stated)
carcinogen call (Species: RAT, Strain/Sex: F344/MALE, Route: ORAL, Dose: 10 MG/KG IN DIET FOR 60 WK, Tumor Site: Type of Lesion: LIVER: HEPATOCELLULAR CARCINOMA): active; positive

CC(C)COC(=O)c1ccc(O)cc1
carcinogen call (Species: MOUSE, Strain/Sex: ICR/FEMALE, Route: ORAL, Dose: 0, 0.15, 0.3, 0.6% IN DIET FOR 102 WK (STUDY DURATION: 106 WK), Dose: 0, 0.15, 0.3, 0.6% IN DIET FOR 102 WK (STUDY DURATION: 106 WK)): inactive; negative
carcinogen call (Species: MOUSE, Strain/Sex: ICR/MALE, Route: ORAL, Dose: 0, 0.15, 0.3, 0.6% IN DIET FOR 102 WK (STUDY DURATION: 106 WK), Dose: 0, 0.15, 0.3, 0.6% IN DIET FOR 102 WK (STUDY DURATION: 106 WK)): inactive; negative

C/C=C/c1cc(OC)c(OC)cc1OC
carcinogen call (Species: MOUSE, Strain/Sex: B6C3F1/MALE, Route: INTRAPERITONEAL, Dose: 0, 0.25, 0.5 UMOL/G BW ONCE (STUDY DURATION: 10-11 MONTHS), Dose: 0, 0.25, 0.5 UMOL/G BW ONCE (STUDY DURATION: 10-11 MONTHS), Tumor Site: Type of Lesion: LIVER: HEPATOMA): active; positive
carcinogen call (Species: MOUSE, Strain/Sex: CD-1/FEMALE, Route: DERMAL, Dose: 0, 5 UMOL 1X/WK FOR 3 WK BEGINNING 24 HR POST FIRST TPA DOSE (2.5 UG IN 0.1 ML ACETONE), FOLLOWED BY 2.5 UG TPA IN 0.1 M): inactive; negative

CS(=O)(=O)OCCCNCCCOS(C)(=O)=O
carcinogen call (Species: MOUSE, Strain/Sex: B6C3F1/FEMALE, Route: INTRAPERITONEAL, Dose: 0, 20, 40 MG/KG 3/WK FOR 52 WK (STUDY DURATION: 52 WK), Dose: 0, 20, 40 MG/KG 3/WK FOR 52 WK (STUDY DURATION: 52 WK), Tumor Site: Type of Lesion: SUBCUTANEOUS TISSUE: SQUAMOUS CELL CARCINOMA, HEMATOPOIETIC SYSTEM: MALIGNANT LYMPHOMA): equivocal
carcinogen call (Species: MOUSE, Strain/Sex: B6C3F1/MALE, Route: INTRAPERITONEAL, Dose: 0, 20, 40 MG/KG 3/WK FOR 52 WK (STUDY DURATION: 52 WK), Dose: 0, 20, 40 MG/KG 3/WK FOR 52 WK (STUDY DURATION: 52 WK), Tumor Site: Type of Lesion: SUBCUTANEOUS TISSUE: SQUAMOUS CELL CARCINOMA, HEMATOPOIETIC SYSTEM: MALIGNANT LYMPHOMA): equivocal
carcinogen call (Species: RAT, Strain/Sex: SPRAGUE-DAWLEY/FEMALE, Route: INTRAPERITONEAL, Dose: 0, 12 MG/KG 3/WK FOR 52 WK, 24 MG/KG 3/WK FOR 34 WK, 48 MG/KG 3/WK FOR 27 WK (STUDY DURATION: 27-52 WK), Dose: 0, 12 MG/KG 3/WK FOR 52 WK, 24 MG/KG 3/WK FOR 34 WK, 48 MG/KG 3/WK FOR 27 WK (STUDY DURATION: 27-52 WK), Tumor Site: Type of Lesion: PERITONEUM: SARCOMA, FIBROMA OR FIBROSARCOMA): equivocal
carcinogen call (Species: RAT, Strain/Sex: SPRAGUE-DAWLEY/MALE, Route: INTRAPERITONEAL, Dose: 0, 12 MG/KG 3/WK FOR 52 WK, 24 MG/KG 3/WK FOR 34 WK, 48 MG/KG 3/WK FOR 23 WK (STUDY DURATION: 23-52 WK), Dose: 0, 12 MG/KG 3/WK FOR 52 WK, 24 MG/KG 3/WK FOR 34 WK, 48 MG/KG 3/WK FOR 23 WK (STUDY DURATION: 23-52 WK), Tumor Site: Type of Lesion: PERITONEUM: SARCOMA, FIBROMA OR FIBROSARCOMA): equivocal

[K+]
carcinogen call (Species: RAT, Strain/Sex: F344/FEMALE, Route: ORAL, Dose: 0, 10, 100, 1000 PPM IN DRINKING WATER FOR 2 YR (STUDY DURATION: 2 YR), Dose: 0, 10, 100, 1000 PPM IN DRINKING WATER FOR 2 YR (STUDY DURATION: 2 YR), Tumor Site: Type of Lesion: SALIVARY GLAND: SQUAMOUS CELL CARCINOMA): active; positive
carcinogen call (Species: RAT, Strain/Sex: F344/MALE, Route: ORAL, Dose: 0, 10, 100, 1000 PPM IN DRINKING WATER FOR 2 YR (STUDY DURATION: 2 YR), Dose: 0, 10, 100, 1000 PPM IN DRINKING WATER FOR 2 YR (STUDY DURATION: 2 YR), Tumor Site: Type of Lesion: SALIVARY GLAND: SQUAMOUS CELL CARCINOMA): active; positive
